These results are taken from patent publication US10493046B2, “5-hydroxytryptamine 1B receptor-stimulating agent for use as a promoter of satellite cells self-renewal and/or differentiation” (INSTITUT PASTEUR, priority 2015, dated 2019).

Values joined by “and” are separate entries in the source; they are usually repeats but may differ in a detail not shown here. Equal values may be shown once.

In test [1] the test system is satellite cells. As to the kind of experiment: FACS-sorted satellite cells in vitro, compound added to the culture medium. Format: cell-based, mouse. The following applies: for Pax7+ (reserve, self-renewing) cells 14 days post-plating / Pax7 positive cells 4 days post-plating / Cells MyoG+ (Myogenin staining): compound added at 10 μM; for Pax7 positive cells 4 days post-plating: 2.000 cells per cm^2; for Cells MyoG+ (Myogenin staining): after 4 days. The protocol: (§1) Muscle dissection was done as previously described in cold DMEM. Muscles were then chopped with small scissors and put in a 50 ml Falcon tube with collagenase 0.1% and trypsin 0.25% at 37° C. with gentle agitation. After 20 minutes, the supernatant was collected in 20% serum placed on ice, and the collagenase/trypsin solution was added to continue the digestion. Once muscle was completely digested, the solution was filtrated using 40 μm cell strainers. Satellite cells were cultured in 1:1 DMEM-Glutamax (Gibco#41965-039):MCDB201 (Sigma#M6770) containing 20% serum FBS (Biowest S1860). Medium was filtered using 0.22 μm filters. Cells were plated on Matrigel coating (BD Biosciences#354234) and kept in an incubator (37° C., 5% CO2). […] The thus-obtained supernatant replaced FBS in the culture medium; the rest of the medium was unchanged.
Satellite cells were isolated from Tg:Pax7nGFP mice and cells were plated at 2.000 cells per cm^2. After overnight, vortioxetine was added at 10 μM. […] 14 days post-plating, a higher number of reserve cells (Pax7 positive cells that are quiescent in vitro) were detected in the vortioxetine-treated cells (9%±0.7) than in the PBS (3.5%±0.9, p=0.01), and when GR127935 inhibitor was added in vitro the number of reserve cells dropped (3.5%±0.9, p=0.9) (FIG. 11c). […] This difference in expression was lost when SC were plated with the GR127935 5-HT1 BR inhibitor (p=0.4) (FIGS. 11c-e). The positive effects of vortioxetine were lost when GR127935 was added in vitro together with vortioxetine (FIGS. 11c-e). These effects were however persistent when adding the 5-HT2 BR antagonist (FIGS. 11c-e). This means that the positive effects observed when plating vortioxetine in vitro with satellite cells is mediated via the 5HT1B receptor and not 5HT2B.
To test whether, 2 derivatives of vortioxetine, namely histidine-vortioxetine and pyrrolidinium-vortioxetine, could have similar or improved effect compared to the unmodified vortioxetine, the in vitro approach as described in section 2.2.3 above was used and the differentiation cascade of satellite cells was investigated by assessing the expression pattern of Pax7 (a marker of stemness and quiescence) and Myogenin (MyoG, a marker of differentiation) as described above in section 2.2.3. To do so, satellite cells from Tg:Pax7-nGFP were isolated by FACS and plated at 2.000 cells per cm^2 (seeded overnight). The following day, the vortioxetine, its derivatives, or the control PBS was added at 10 μM and the cells were fixed at the indicated time points.

Test [2] relates to satellite cells. As to the kind of experiment: Satellite cell (SC) number in tibialis anterior of treated mice (histological count or FACS cytometry). Format: in vivo, mouse.
In test [3] the test system is satellite cells. Briefly: Satellite cells in vitro in plasma of treated mice (live videomicroscopy, immunostaining). Format: cell-based, mouse. The following applies: plasma from fluoxetine-treated mice plus MDL100907. The protocol:
as §1
Cells isolated by FACS were plated overnight on a 24-well glass bottom plate (P24G-0-10-F; MatTek) coated with matrigel (BD Biosciences#354234) and placed in an incubator in pre-equilibrated medium (1:1 DMEM Glutamax: MCDB [Sigma-Aldrich], 20% FCS (Biowest S1860). The plate was then incubated at 37° C., 5% CO2 (Zeiss, Pecon). A Zeiss Observer.Z1 connected with a LCI PInN 10×/0.8 W phaseII objective and AxioCam camera piloted with AxioVision was used. Cells were filmed for up to 5 days, and images were taken every 30 min with brightfield and phase filters and MozaiX 3×3 (Zeiss). Raw data were transformed and presented as a video.
Those results were confirmed in vitro (FIG. 7a). […] This difference was lost when SC were plated with GR127935 (p=0.4) (FIG. 7e). The faster exit of quiescence and higher division rates were also lost when adding GR127935 in vitro (FIGS. 7f,g). The effects of the plasma from fluoxetine-treated animals were persistent when adding MDL100907 (FIGS. 7b-g).

A further test concerns Tibialis anterior. As to the kind of experiment: Muscle regeneration after notexin injury of tibialis anterior. Format: in vivo, mouse. The settings on record: antagonist together with fluoxetine; SC, differentiating cells, fiber size, calcium deposits, fibrosis, Gr1 and F4/80 cells. As to the method:
Animals were anesthetized with ketamine (Imalgene1000 100 mg/Kg Merial) and Xylazine (Rompun2% 20 mg/Kg Bayer) prior to injury. Animals were hydrated and treated with analgesic (Buprenorphin Axience 0.3 mg/kg) twice a day for 4 d following injury. For the injury, mice were anesthetized as previously described and 10 μl of 12.5 μg/ml Notexin (Lotaxan) was injected in the Tibialis anterior. All protocols were reviewed by the Institut Pasteur, the competent authority, for compliance with the French and European regulations on Animal Welfare and with Public Health Service recommendations. This project has been reviewed and approved (#2013-0044) by the Institut Pasteur ethic committee (C2EA 89-CETEA).
Tibialis anterior (TA) was carefully dissected and snap frozen in liquid-nitrogen-cooled isopentane for a few minutes and stored at −80° C. prior to cryosectioning (10 μm sections). Sections were kept at room temperature overnight before staining. Sections were then rehydrated in PBS for 10 minutes and fixed in 10% formalin for 3 minutes. The sections were then routinely stained with haematoxylin and eosin (HE) using an automated stain machine or manually with red sirius.
(§2) Immunostaining was performed on cryosections fixed with 4% paraformaldehyde (PFA EMS#15710) in cold PBS, permeabilized with 0.5% Triton X-100 20 min at room temperature, washed, and blocked with 10% BSA for 30 min. Sections were incubated with primary antibodies overnight at 4° C. (see Table 1 below) and with Alexa-conjugated secondary antibodies 1/250 and Hoechst for 45 minutes. Sections were then analysed using an automated axioscan (Zeiss) or inverted Observer.Z1 Apotome (Zeiss). For apoptosis assessment, cells were collected in 2% serum, spun on polyD-lysine (Sigma-Aldrich#P6407), and immediately fixed with PFA 4%.
For image analysis (fibrosis quantification), ImageJ 1.46r software was using between 10 different photos randomly taken per section and 3 sections minimum per experimental group. The pictures were converted in a binary image and the pixel values then collected. For fibre size, the sections were immunostained with rabbit anti Laminin (Sigma-Aldrich #L9393) diluted at 1/200, overnight at 4° C. Secondary Donkey ant Rabbit 488 (DL488 JacksonImmuno #711486152) were used at 1/200 45 minutes at room temperature. The fibre perimeter was done automatically by using Pixcavator® software.

Test [4] relates to satellite cells. As to the kind of experiment: Satellite cell (SC) number in tibialis anterior of treated mice (histological count or FACS cytometry). The following applies: for Number of satellite cells per TA by cytometry: Tg:Pax7nGFP mice. Format: in vivo, mouse. The protocol:
For satellite cell counting, only the tibialis anterior muscle was dissected and digested as described earlier, and the totality of the tube was analysed to assess the number of satellite cells per muscle. FACS analysis was done using a FACSasia (Beckman). All analyses and quantitation were performed using Summit v4.3 software from DakoCytomation and FloJo software. […]
In order to count the number of satellite cells, the tibialis anterior (TA) of Tg:Pax7nGFP mice were digested and analysed by FACS in placebo and vortioxetine (12 days, 20 mg/Kg) treated mice. […] After 3 weeks of vortioxetine treatment, the number of satellite cells was even higher (9351 satellite cells±706, p=0.0079) but no statistically significant differences were found between 12 days and 3 weeks of treatment (p=0.15).

Test [5] deals with vessels. Briefly: Vessel number in tibialis anterior of treated mice (Flk1GFP/+ or CD31 immunostaining). The format is in vivo, mouse. As to the method: as §2
Throughout the study, focus was made on the tibialis anterior (TA). In skeletal muscle, SC are central for muscle repair. […] SC are localized close to capillaries and angiogenesis is known to be crucial for muscle repair SC survival with cellular interplays between vessel cells and SC. The number of vessels was therefore quantified. In control Flk1^GFP/+ mouse (placebo), the number of vessels was of 870±213.1 vessels per mm^2 and increased after 3 weeks of I.P treatment (1103±110.2 vessels per mm^2), and even more after 6 weeks (1384±175.3 vessels per mm^2, p=0.008) (FIG. 2e). Neovessels presented with normal histological appearance associating a basal lamina and a permeable lumen sometimes containing red blood cells. […] 841±137 CD31+ cells per mm^2 were counted in the placebo-treated mice vs. 2260±361 CD31+ cells per mm^2 in the fluoxetine-treated mice, p=0.008 (FIG. 2t-v), confirming the previous observation.
In order to investigate the effect of vortioxetine on vessels number, intra peritoneal (I.P) administration of 20 mg/kg of vortioxetine was performed for either 12 days, 3 or 6 weeks to C57Bl/6 mice (FIG. 10a). The number of CD31+ cells was counted by immunostaining. The number of vessels in the placebo is (863.5±115.6 vessels per mm^2) and increases after 12 days of I.P treatment (2274±926 vessels per mm^2, p=0.03), and even more after 3 weeks (2847±705 vessels per mm^2, p=0.02) (FIG. 10b). However, there was no statistically significant differences between 12 days and 3 weeks of treatment (p=0.49). Neovessels display a normal histological appearance associated with a basal lamina and a permeable lumen sometimes containing red blood cells. The daily administration of vortioxetine IP might cause unwanted peritoneal inflammation that could interfere with angiogenesis since inflammation and neovascularization are intertwined in some models. Vortioxetine was therefore administered per os (P.O) for 12 days: a similar increase in the number of vessels was observed (2451±595 vessels per mm^2 p=0.028, FIG. 10c). To further confirm those results, vortioxetine will be administered to Flk1^GFP/+ mice P.O and I.P for 12 days, and an ex vivo Matrigel angiogenesis assay and plasma from vortioxetine treated mice will be used on HUVEC (endothelial cells).

Test [6] has as its system vessels. The description is as above. Format: in vivo, mouse. The settings on record: vortioxetine I.P 12 days and PBS in osmotic pump.

On to `CCCOc1ccc2[nH]cc(C3=CCNCC3)c2n1` [5-HT1B agonist], for which the “Effect of direct addition on differentiation and self-renewal of SC” value in the test on satellite cells [1] (direct addition in the culture media, Pax7+ and Myogenin+ cells) is reported as “triggered the same effect as the addition of plasma from fluoxetine-treated mice”.

On to `COc1cccc([C@H](O)C2CCN(CCc3ccc(F)cc3)CC2)c1OC` [MDL100907], for which the “Inhibition of fluoxetine effects on SC and vessel number by the antagonist” value in the test with satellite cells [2] (antagonist together with fluoxetine treatment) is “no inhibition of fluoxetine effects were observed”. Further, in the test with satellite cells [3], the “Effects of the plasma from fluoxetine-treated animals when adding MDL100907” value is “persistent”. Further, the “Effects of vortioxetine when adding the 5-HT2 BR antagonist” value in the test on satellite cells [1] (5-HT2 BR antagonist together with vortioxetine 10 μM) is given as “persistent”. Also, in the test on Tibialis anterior, the “Effect of the antagonist on the beneficial effects of fluoxetine after injury” value is recorded as “did not suppress the beneficial effects of fluoxetine”. The “Inhibition of vortioxetine effects on vessels and SC number by the antagonist” value with satellite cells [4] (MDL100907 together with vortioxetine) is “No inhibition of vortioxetine effects was observed”.

For `Cc1ccc(Sc2ccccc2N2CC[N+]3(CCCC3)CC2)c(C)c1` [pyrrolidinium-vortioxetine], the “Increase in number of self-renewing cells compared with vortioxetine alone” value with satellite cells [1] (10 μM, 14 days post-plating) is 20%. Further, in the test with satellite cells [1], the “Pax7+ (reserve, self-renewing) cells 14 days post-plating” value was 12.5±1.9%; the “Pax7 positive cells 4 days post-plating” value is 25.25±4%; the “Cells MyoG+ (Myogenin staining)” value was 19.75±0.47%. The “Number of SCs in the TA vs PBS” value with satellite cells [4] (20 mg/Kg IP for 12 days, TgPax7nGFP mice) was “doubling”.

With `Cc1ccc(Sc2ccccc2N2CCNCC2)c(C)c1` [vortioxetine, 1-[2-(2,4-Dimethylphenylsulfanyl)phenyl]piperazine], the “SC increase by histological count on TA sections” value in the test with satellite cells [2] (vortioxetine 12 days, 20 mg/Kg) is “two-fold increase”. In addition, the “Pax7+ (reserve, self-renewing) cells 14 days post-plating” value in the test with satellite cells [1] was 9% and 10.5±0.65%. For the same molecule, the “Pax7 positive cells 4 days post-plating” value with satellite cells [1] is 23% and 23.7±2.78%. Besides, in the test on satellite cells [1], the “Cells MyoG+ (Myogenin staining)” value was 34.5±2.5%. The “MyoD (activation marker) expression between conditions” value in the test with satellite cells [1] (vortioxetine 10 μM vs PBS vs GR127935) was “did not differ at any time investigated”. The “Myogenin (MyoG) expression increase” value in the test with satellite cells [1] (vortioxetine 10 μM, 4 days post-plating) was found to be 2 times increase. Also, the “Number of vessels (CD31+)” value with vessels [5] (vortioxetine 20 mg/kg I.P, 3 weeks, C57Bl/6 mice) is recorded as 2847±705 vessels per mm^2; with vessels [5] (vortioxetine 20 mg/kg I.P, 12 days, C57Bl/6 mice) it was 2274±926 vessels per mm^2; in the test with vessels [5] (vortioxetine per os (P.O), 12 days), 2451±595 vessels per mm^2. The molecule further showed a Number of vessels with vessels [6] of 2274±926 vessels per mm^2. Further, the “Number of satellite cells per TA by cytometry” value with satellite cells [4] (vortioxetine 3 weeks) worked out at 9351 satellite cells; with satellite cells [4] (vortioxetine 12 days, 20 mg/Kg), 8660 satellite cells. Also, the “SC number after P.O administration vs I.P” value in the test on satellite cells [4] (vortioxetine P.O at 20 mg/kg) was “a similar increase in SC number”.
